# pIC50: −log10 of the molar value.
# Legend:
# [1] = system: SW48; assay: CellTiterGlo in vitro viability, 4-day treatment, SW48; assay type: cell-based
# Description: (§1) Growth inhibition %: 0-99=delayed proliferation, 100=growth arrest/stasis, 101-200=reduction in cell number/cell death.
# [2] = system: HCT116; assay: CellTiterGlo in vitro viability, 4-day treatment, HCT116; assay type: cell-based
# Description: as §1
# [3] = target: WRN (Homo sapiens, UniProt Q14191); assay: WRN ATPase activity assay; assay type: biochemical; settings: assay of WO2022/249060
# Description: (§2) According to the assays disclosed in the application PCT/IB2022/054850 published as WO2022/249060, which is hereby incorporated by reference, the compounds were active as shown in Table X
# [4] = system: SW48; assay: Proliferation assay SW48; assay type: cell-based; settings: Homo sapiens, assay of WO2022/249060
# Description: as §2
# [5] = system: DLD1-WRN-KO; assay: Proliferation assay DLD1-WRN-KO; assay type: cell-based; settings: assay of WO2022/249060
# Description: as §2
# [6] = system: SW48 colorectal carcinoma cells; assay: SW48 xenograft efficacy in nude mice; assay type: in vivo; settings: Example 12; trametinib 0.3 mg/kg p.o. qd; BRAF WT SW48
# Method: All animals were allowed to adapt for 7 days and housed in a pathogen-controlled environment (5 mice/Type III cage) with access to food and water ad libitum and were identified with transponders.
# 5.0×10^6 SW48 colorectal carcinoma cells were implanted subcutaneously in nude mice (Charles River, Germany). Treatment was initiated when tumors reached 150-200 mm^3 volume. Efficacy studies and tumor response were measured as above.
# Chain of WRN (Q14191 whole entry): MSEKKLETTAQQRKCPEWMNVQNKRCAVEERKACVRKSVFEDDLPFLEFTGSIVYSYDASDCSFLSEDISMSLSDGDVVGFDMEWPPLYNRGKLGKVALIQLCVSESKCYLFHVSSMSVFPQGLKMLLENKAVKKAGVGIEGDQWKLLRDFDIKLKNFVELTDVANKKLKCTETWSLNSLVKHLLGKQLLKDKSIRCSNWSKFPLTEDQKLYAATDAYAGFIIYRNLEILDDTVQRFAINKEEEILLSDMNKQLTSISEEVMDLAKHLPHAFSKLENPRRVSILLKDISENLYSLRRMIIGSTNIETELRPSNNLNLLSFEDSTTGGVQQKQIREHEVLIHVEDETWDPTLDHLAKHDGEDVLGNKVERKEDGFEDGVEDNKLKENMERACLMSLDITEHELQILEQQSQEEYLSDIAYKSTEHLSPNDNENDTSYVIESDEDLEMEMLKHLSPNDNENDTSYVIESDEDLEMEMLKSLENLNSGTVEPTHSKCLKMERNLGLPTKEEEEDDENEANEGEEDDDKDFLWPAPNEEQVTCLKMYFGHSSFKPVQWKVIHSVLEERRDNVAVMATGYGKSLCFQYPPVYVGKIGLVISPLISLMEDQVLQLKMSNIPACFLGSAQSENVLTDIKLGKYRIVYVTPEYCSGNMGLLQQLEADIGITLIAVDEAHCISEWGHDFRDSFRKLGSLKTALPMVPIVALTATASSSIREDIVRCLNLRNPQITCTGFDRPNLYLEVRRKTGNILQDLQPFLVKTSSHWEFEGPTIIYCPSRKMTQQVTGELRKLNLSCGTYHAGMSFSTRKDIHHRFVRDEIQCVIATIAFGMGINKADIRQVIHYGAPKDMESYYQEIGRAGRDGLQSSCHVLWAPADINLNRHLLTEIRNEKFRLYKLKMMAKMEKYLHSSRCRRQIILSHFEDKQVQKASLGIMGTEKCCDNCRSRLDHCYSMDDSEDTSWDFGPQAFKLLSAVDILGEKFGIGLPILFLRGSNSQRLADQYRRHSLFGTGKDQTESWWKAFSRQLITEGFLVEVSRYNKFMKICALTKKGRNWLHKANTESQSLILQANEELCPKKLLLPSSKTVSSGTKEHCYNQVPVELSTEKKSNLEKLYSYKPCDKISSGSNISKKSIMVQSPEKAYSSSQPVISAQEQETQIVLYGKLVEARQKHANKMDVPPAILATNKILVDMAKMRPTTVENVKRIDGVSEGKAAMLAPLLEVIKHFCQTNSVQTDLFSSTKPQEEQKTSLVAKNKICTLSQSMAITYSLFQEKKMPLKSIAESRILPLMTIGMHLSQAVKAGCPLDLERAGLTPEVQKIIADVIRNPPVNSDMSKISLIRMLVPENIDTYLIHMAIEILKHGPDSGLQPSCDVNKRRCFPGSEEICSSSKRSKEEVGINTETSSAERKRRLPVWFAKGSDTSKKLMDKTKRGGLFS
Compound,"proliferation of SW48 cells, single agent [1]",also measured
O=c1[nH]cc(F)c(=O)[nH]1 [5-fluorouracil],inhibited,
"C[C@@]1(CO)[C@H](O)CC[C@@]2(C)[C@H]1CC[C@H]1C[C@@H]3C[C@@]12CC[C@]3(O)CO [Aphidicolin, aphidicolin]",inhibited,
"CC[C@@]1(O)C(=O)OCc2c1cc1n(c2=O)Cc2cc3ccccc3nc2-1 [Camptothecin, camptothecin]",inhibited,
CCc1c(N2CCN(C(=O)c3ncccc3O)CC2)c(=O)n2nc(C3=CCOCC3)nc2n1CC(=O)Nc1ccc(C(F)(F)F)cc1C [Compound B],inhibited,"proliferation of HCT116 cells, single agent [2]: inhibited"
"COc1cccc2c1C(=O)c1c(O)c3c(c(O)c1C2=O)C[C@@](O)(C(=O)CO)C[C@@H]3O[C@H]1C[C@H](N)[C@H](O)[C@H](C)O1 [Doxorubicin, doxorubicin]",inhibited,"proliferation of HCT116 cells, single agent [2]: inhibited"
"Nc1ccn([C@@H]2O[C@H](CO)[C@@H](O)C2(F)F)c(=O)n1 [Gemcitabin, gemcitabine]",inhibited,
COc1ncc(-c2nc3c(n2C(C)C)[C@H](c2ccc(Cl)cc2)N(c2cc(Cl)cn(C)c2=O)C3=O)c(OC)n1 [HDM201],to some extent,
C[C@@H]1CN(CC(=O)Nc2ccc3c(c2)Cc2cccc(-c4cc(=O)cc(N5CCOCC5)o4)c2S3)C[C@H](C)O1 [KU-60019],inhibited,
O=c1cc(N2CCOCC2)oc2c(-c3cccc4c3sc3ccccc34)cccc12 [NU7441 (KU-57788)],inhibited,
CCc1nc2c(NC(C)(C)C)nc(Nc3ccc4nc(OCCN5CCOCC5)ccc4c3)nc2[nH]1 [QAP1],inhibited,
"CCc1c(N2CCN(C(=O)c3ncccc3O)CC2)c(=O)n2nc(C3=CCN(C(=O)CCC(=O)N[C@H](C(=O)N4C[C@H](O)C[C@H]4C(=O)N[C@@H](C)c4ccc(-c5scnc5C)cc4)C(C)(C)C)CC3)nc2n1CC(=O)Nc1ccc(C(F)(F)F)cc1C [X, (2S,4R)-1-((S)-2-(4-(4-(5-ethyl-6-(4-(3-hydroxypicolinoyl)piperazin-1-yl)-4-(2-((2-methyl-4-(trifluoromethyl)phenyl)amino)-2-oxoethyl)-7-oxo-4,7-dihydro-[1,2,4]triazolo[1,5-a]pyrimidin-2-yl)-3,6-dihydropyridin-1(2H)-yl)-4-oxobutanamido)-3,3-dimethylbutanoyl)-4-hydroxy-N—((S)-1-(4-(4-methylthiazol-5-yl)phenyl)ethyl)pyrrolidine-2-carboxamide]",,pIC50 [3]: 6.80; GI50 [4]: 3840 nM; GI50 [5]: > 10000 nM
"CCc1c(N2CCN(C(=O)c3ncccc3O)CC2)c(=O)n2nc(C3=CCN(C(=O)[C@H](CC(C)C)NC(=O)[C@@H](O)[C@H](N)Cc4ccccc4)CC3)nc2n1CC(=O)Nc1ccc(C(F)(F)F)cc1C [Y, (2S,3R)-3-amino-N—((S)-1-(4-(5-ethyl-6-(4-(3-hydroxypicolinoyl)piperazin-1-yl)-4-(2-((2-methyl-4-(trifluoromethyl)phenyl)amino)-2-oxoethyl)-7-oxo-4,7-dihydro-[1,2,4]triazolo[1,5-a]pyrimidin-2-yl)-3,6-dihydropyridin-1(2H)-yl)-4-methyl-1-oxopentan-2-yl)-2-hydroxy-4-phenylbutanamide]",,pIC50 [3]: 6.85; GI50 [4]: 1190 nM; GI50 [5]: > 10000 nM
"CCc1c(N2CCN(C(=O)c3ncccc3O)CC2)c(=O)n2nc(C3=CCN(C(=O)CCCCCOc4ccc5c(c4)C(=O)N(C4CCC(=O)NC4=O)C5)CC3)nc2n1CC(=O)Nc1ccc(C(F)(F)F)cc1C (stereo not drawn) [Z, 2-(2-(1-(6-((2-(2,6-dioxopiperidin-3-yl)-3-oxoisoindolin-5-yl)oxy)hexanoyl)-1,2,3,6-tetrahydropyridin-4-yl)-5-ethyl-6-(4-(3-hydroxypicolinoyl)piperazin-1-yl)-7-oxo-[1,2,4]triazolo[1,5-a]pyrimidin-4(7H)-yl)-N-(2-methyl-4-(trifluoromethyl)phenyl)acetamide]",,pIC50 [3]: 7.05; GI50 [4]: 1310 nM; GI50 [5]: > 10000 nM
N.N.[Cl][Pt][Cl] [cisplatin],inhibited,
CC(=O)Nc1cccc(-n2c(=O)n(C3CC3)c(=O)c3c(Nc4ccc(I)cc4F)n(C)c(=O)c(C)c32)c1 [trametinib],,effect on tumor growth [6]: no effect
bleomycin,inhibited,

# — US20240197715A1, “PHARMACEUTICAL COMBINATIONS AND USES THEREOF” (NOVARTIS AG, priority 2022, published 2024)
